Laboratory results: patent US20150291532A1, “AMORPHOUS FORM OF QUINOLINE DERIVATIVE, AND METHOD FOR PRODUCING SAME” (Eisai R&D Management Co., Ltd., priority 2012, published 2015)

How the values were obtained:
[1] = Evaluation of solubility: dissolved concentration by the Paddle method, HPLC; format: physicochemical; conditions: general statement of advantageous effect
[2] = as above; format: physicochemical; conditions: approx. 40 mg in 100 mL fasting artificial intestinal juice pH 6.5, 37° C., 50 rpm; for Concentration of compound A at sampling time 5 minute: 5 min; for Concentration of compound A at sampling time 10 minute: 10 min; for Concentration of compound A at sampling time 20 minute: 20 min; for Concentration of compound A at sampling time 30 minute: 30 min; for Concentration of compound A at sampling time 45 minute: 45 min; for Concentration of compound A at sampling time 60 minute: 60 min
Experimental: The dissolved concentration of amorphous compound A obtained in Example 1 was measured by the Paddle method. Approximately 40 mg of amorphous compound A was loaded into an equipment for the elution test, and 500 μL of solution was sampled at 5, 10, 20, 30, 45 and 60 minutes each. The concentration of compound A in the solution was measured by HPLC. As a comparative control there was used B-form crystals of 4-(3-chloro-4-(cyclopropylaminocarbonyl)aminophenoxy)-7-methoxy-6-quinolinecarboxamide (see Patent Literature 2). Solvent: 100 mL of fasting artificial intestinal juice (buffer with pH 6.5, containing 29 mM NaH2PO4, 100 mM KCl, 7.5 mM lecithin, and 30 mM sodium taurocholate) Temperature: 37° C. Paddle rotational speed: 50 rpm Column: YMC-UltraHT C18 (product of YMC Inc., inner diameter: 2.0 mm, column length: 50 mm, particle size: 2 μm) Column temperature: 40° C. (using a column oven) Flow rate: 0.42 mL/min Mobile phase: Solution A and solution B were used for elution with the linear gradient shown in Table 1. Solution A H2O: CH3CN:HClO4*=990:10:1 (V/V/V) Solution B CH3CN:H2O:HClO4*=900:100:1 (V/V/V) (*: 70% aqueous solution) Injection volume: 10 μL Detection: Ultraviolet absorptiometer (measuring wavelength: 252 nm). Autosampler temperature: 10° C.

Row | SMILES | Solubility in water [1] | Concentration of compound A at sampling time 5 minute [2] | Concentration of compound A at sampling time 10 minute [2] | Concentration of compound A at sampling time 20 minute [2] | Concentration of compound A at sampling time 30 minute [2] | Concentration of compound A at sampling time 45 minute [2] | Concentration of compound A at sampling time 60 minute [2]
1 | COc1cc2nccc(Oc3ccc(NC(=O)NC4CC4)c(Cl)c3)c2cc1C(N)=O [Amorphous A, 4-(3-chloro-4-(cyclopropylaminocarbonyl)aminophenoxy)-7-methoxy-6-quinolinecarboxamide] | excellent solubility in water | 4900 ng/mL | 5360 ng/mL | 5630 ng/mL | 5520 ng/mL | 5410 ng/mL | 5310 ng/mL
2 | COc1cc2nccc(Oc3ccc(NC(=O)NC4CC4)c(Cl)c3)c2cc1C(N)=O [Crystalline B, 4-(3-chloro-4-(cyclopropylaminocarbonyl)aminophenoxy)-7-methoxy-6-quinolinecarboxamide, reference compound] | – | 810 ng/mL | 870 ng/mL | 930 ng/mL | 940 ng/mL | 980 ng/mL | 1000 ng/mL
